Source: patent US6825201B2 (priority 2001, dated 2004)
Where two headings read alike, the source gives them in different places.

Tested on: HIV-1 single-round infectious reporter virus
Experiment: microbe, parasite or virus in culture
Format: cell-based
Conditions: read-out: EC50 Range
Procedure: Virus infection—Human epithelial cell line, HeLa, expressing the HIV-1 receptors CD4 and CCR5 was propagated in Dulbecco's Modified Eagle Medium (Life Technologies, Gaithersburg, Md.) containing 10% fetal Bovine serum (FBS, Sigma, St. Louis, Mo.) and supplemented with 0.2 mg/ml Geneticin (Life Technologies, Gaithersburg, Md.) and 0.4 mg/ml Zeocin (Invitrogen, Carlsbad, Calif.).
Transfections were performed using lipofectAMINE PLUS reagent as described by the manufacturer (Life Technologies, Gaithersburg, Md.).
1. Compound was added to HeLa CD4 CCR5 cells plated in 96 well plates at a cell density of 5×10^4 cells per well in 100 μl Dulbecco's Modified Eagle Medium containing 10% fetal Bovine serum at a concentration of <20 μM.
2. 100 μl of single-round infectious reporter virus in Dulbecco's Modified Eagle Medium was then added to the plated cells and compound at an approximate multiplicity of infection (MOI) of 0.01, resulting in a final volume of 200 μl per well and a final compound concentration of <10 μM.
3. Samples were harvested 72 hours after infection.
4. Viral infection was monitored by measuring luciferase expression from viral DNA in the infected cells using a luciferase reporter gene assay kit (Roche Molecular Biochemicals, Indianapolis, Ind.). Infected cell supernatants were removed and 50 μl of Dulbecco's Modified Eagle Medium (without phenol red) and 50 μl of luciferase assay reagent reconstituted as described by the manufacturer (Roche Molecular Biochemicals, Indianapolis, Ind.) was added per well. Luciferase activity was then quantified by measuring luminescence using a Wallac microbeta scintillation counter.
5. An EC50 provides a method for comparing the antiviral potency of the compounds of this invention. The effective concentration for fifty percent inhibition (EC50) was calculated with the Microsoft Excel Xlfit curve fitting software.

[1] = Human immunodeficiency virus 1, HeLa-CD4/CCR5, 72 h

| Compound | EC50 [1] [nM] | EC50 (HeLa CD4 CCR5 cells, single-round HIV-1 reporter virus, MOI 0.01, luciferase read 72 hours after infection) [nM] |
| --- | --- | --- |
| COc1ccc2cc(C(=O)C(C#N)N3CCN(C(=O)c4ccccc4)CC3C)[nH]c2c1 (centres unmarked) [Example 2] | < 1000 | – |
| COc1cccc2occ(C(=O)C(C#N)N3CCN(C(=O)c4ccccc4)CC3)c12 (centres unmarked) [Example 3] | < 1000 | – |
| O=C(C(=O)N1CCN(C(=O)c2ccccc2)CC1)c1cc2ccccc2[nH]1 [Example 5, 1-(benzoyl)-4-[(indol-2-yl)-2-oxoacetyl]piperazine] | < 1000 | – |
| COc1cccc2occ(C(=O)C(=O)N3CCN(C(=O)c4ccccc4)CC3)c12 [Example 6] | > 500 | – |
| CC1CN(C(=O)c2ccccc2)CCN1C(=O)C(=O)c1cc2cc(F)ccc2[nH]1 (centres unmarked) [Example 8] | < 1000 | – |
| CC1CN(C(=O)c2ccccc2)CCN1C(=O)C(=O)c1cc2cc(Cl)ccc2[nH]1 (centres unmarked) [Example 9] | < 1000 | – |
| COc1c(C(=O)C(=O)N2CCN(C(=O)c3ccccc3)CC2)cnc2c1c(C)nn2C [Example 10] | 1000 to 5000 | – |
| COc1c(C(=O)C(=O)N2CCN(C(=O)c3ccccc3)CC2C)cnc2c1c(C)nn2C (centres unmarked) [Example 12] | 1000 to 5000 | – |
| CCCCNc1c(C(=O)C(=O)N2CCN(C(=O)c3ccccc3)CC2C)cnc2c1cnn2CC (centres unmarked) [Example 13] | < 1000 | – |
| CCCCNc1c(C(=O)C(=O)N2CCN(C(=O)c3ccccc3)CC2)cnc2c1cnn2CC [Example 14] | > 5000 | – |
| O=C(C(=O)N1CCN(C(=O)c2ccccc2)CC1)c1csc2ccccc12 [Example 18, 1-(benzoyl)-4-[(benzothiophen-3-yl)-2-oxoacetyl]piperazine] | 1000 to 5000 | – |
| O=C(C(=O)N1CCN(C(=O)c2ccccc2)CC1)c1cc2ccccc2s1 [Example 19, 1-(benzoyl)-4-[(benzothiophen-2-yl)-2-oxoacetyl]piperazine] | 1000 to 5000 | – |
| O=C(C(=O)N1CCN(C(=O)c2ccccc2)CC1)c1cccc2[nH]ccc12 [Example 22, 1-(4-benzoyl-piperazin-1-yl)-2-(1H-indol-4-yl)-ethane-1,2-dione] | < 1000 | – |
| COc1ccc(-c2nc(C)n[nH]2)c2[nH]cc(C(=O)N3CCN(C(=O)c4ccccc4)CC3)c12 [Example 26] | 1000 to 5000 | – |
| COc1ccc(C#N)c2[nH]cc(C(=O)N3CCN(C(=O)c4ccccc4)CC3)c12 [Example 27] | > 500 | – |
| COc1ccc(C#N)c2[nH]cc(C(=O)N3CCN(C(=O)c4ccccc4)C[C@H]3C)c12 [Example 28] | > 500 | – |
| O=C(c1ccccc1)N1CCN(C(=O)c2c[nH]c3cccc(F)c23)CC1 [Example 29] | < 1000 | – |
| CNC(=O)c1ccc(F)c2c(CC(=O)N3CCN(C(=O)c4ccccc4)CC3)c[nH]c12 [Example 31, 3-[2-(4-Benzoyl-piperazin-1-yl)-2-oxo-ethyl]-4-fluoro-1H-indole-7-carboxylic acid methylamide] | 1000 to 5000 | – |
| CNC(=O)c1ccc(F)c2c(C(O)C(=O)N3CCN(C(=O)c4ccccc4)CC3)c[nH]c12 (centres unmarked) [Example 32, 3-[2-(4-Benzoyl-piperazin-1-yl)-1-hydroxy-2-oxo-ethyl]-4-fluoro-1H-indole-7-carboxylic acid methylamide] | < 1000 | – |
| N-(benzoyl)-N′-[(4-fluorol-indolin-3-yl)-acetyl]-piperazine [Example 21] | – | < 1000 |
